Among the data in patent US20050043315A1, “Aminopyrimidine compounds, processes for their preparation and pharmaceutical compositions containing them” (priority 2002, published 2005) are melting point values, retold here.

As a reminder, the melting point is the temperature of the solid-liquid transition. Compound `CN(C)c1ncc(-c2ccc(=O)n(C)n2)c(-c2ccc(Cl)cc2)n1` [Example 246, 6-[4-(4-chlorophenyl)-2-(dimethylamino)-5-pyrimidinyl]-2-methyl-3(2H)-pyridazinone] yielded a melting point of 166 °C.
For `CCCCCCOc1cccc(-c2nc(N)ncc2-c2ccc(=O)n(C(C)C)n2)c1` [Example 208, 6-{2-Amino-4-[3-(hexyloxy)phenyl]-5-pyrimidinyl}-2-isopropyl-3(2H)-pyridazinone], the melting point was determined as 121 °C.
Regarding `COc1ccc(-c2nc(N)ncc2-c2ccc(=O)[nH]n2)cc1OC` [Example 37, 6-[2-Amino-4-(3,4-dimethoxyphenyl)-5-pyrimidinyl]-3(2H)-pyridazinone], the melting point came to 225 °C.
The result for `Cc1ccc(-c2nc(N)ncc2-c2ccc(=O)[nH]n2)cc1` [Example 35, 6-[2-Amino-4-(4-methylphenyl)-5-pyrimidinyl]-3(2H)-pyridazinone] reads 249 °C; that for `CC(C)C(=O)Nc1ncc(-c2ccc(=O)n(C(C)C)n2)c(-c2ccccc2)n1` [Example 163, N-[5-(1-isopropyl-6-oxo-1,6-dihydro-3-pyridazinyl)-4-phenyl-2-pyrimidinyl]-2-methylpropanamide], 145 to 147 °C.
Then `CN(C)c1ncc(-c2ccc(=O)n(C)n2)c(-c2cccc(F)c2)n1` [Example 248, 6-[2-(Dimethylamino)-4-(3-fluorophenyl)-5-pyrimidinyl]-2-methyl-3(2H)-pyridazinone], with 184 °C; and `CC(C)n1nc(-c2c(-c3ccccc3)nc(N)nc2N2CCNCC2)ccc1=O` [Example 128, 6-[2-amino-4-phenyl-6-(1-piperazinyl)-5-pyrimidinyl]-2-isopropyl-3(2H)-pyridazinone], with 254 to 256 °C.
Then `COCC(=O)Nc1ncc(-c2ccc(=O)n(C(C)C)n2)c(-c2ccccc2)n1` [Example 166, N-[5-(1-isopropyl-6-oxo-1,6-dihydro-3-pyridazinyl)-4-phenyl-2-pyrimidinyl]-2-methoxyacetamide], with 94 to 97 °C.
With `CC(C)n1nc(-c2c(-c3ccc(F)cc3)nc(N)nc2[S+](C)[O-])ccc1=O` (centres unmarked) [Example 151, 6-[2-amino-4-(4-fluorophenyl)-6-(methylsulfinyl)-5-pyrimidinyl]-2-isopropyl-3(2H)-pyridazinone], the melting point lay in the range of 238 to 240 °C.
`CC(C)Oc1ccc(-c2nc(N)ncc2-c2ccc(=O)n(C(C)C)n2)cc1` [Example 194, 6-[2-Amino-4-(4-isopropoxyphenyl)-5-pyrimidinyl]-2-isopropyl-3(2H)-pyridazinone] yielded a melting point of 164 °C.
The result for `Nc1ncc(-c2ccc(=O)[nH]n2)c(-c2cccs2)n1` [Example 41, 6-[2-Amino-4-(2-thienyl)-5-pyrimidinyl]-3(2H)-pyridazinone] reads 265 °C; that for `CC(C)n1nc(-c2c(NCc3ccncc3)nc(N)nc2-c2ccccc2)ccc1=O` [Example 123, 6-{2-Amino-4-phenyl-6-[(4-pyridinylmethyl)amino]-5-pyrimidinyl}-2-isopropyl-3(2H)-pyridazinone], 221.5 to 222.5 °C; that for `CC(C)n1nc(-c2cnc(N)nc2-c2ccccc2O)ccc1=O` (hydrate or solvate) [Example 186, 6-[2-Amino-4-(2-hydroxyphenyl)-5-pyrimidinyl]-2-isopropyl-3(2H)-pyridazinone], 241 °C.
The result for `CC(C)n1nc(-c2c(Sc3ccccc3)nc(N)nc2-c2ccccc2)ccc1=O` [Example 138, 6-[2-Amino-4-phenyl-6-(phenylthio)-5-pyrimidinyl]-2-isopropyl-3(2H)-pyridazinone] reads 214 to 215 °C; that for `CC(C)n1nc(-c2c(Cl)nc(N)nc2-c2ccccc2)ccc1=O` [Example 252, 6-(2-amino-4-chloro-6-phenyl-5-pyrimidinyl)-2-isopropyl-3(2H)-pyridazinone], 235 to 237 °C; that for `Cn1nc(-c2cnc(N)nc2-c2ccc(Cl)cc2)ccc1=O` [Example 61, 6-[2-Amino-4-(4-chlorophenyl)-5-pyrimidinyl]-2-methyl-3(2H)-pyridazinone], 264 °C.
In the case of `CCCOc1nc(N)nc(-c2ccccc2)c1-c1ccc(=O)n(C(C)C)n1` [Example 91, 6-(2-amino-4-phenyl-6-propoxy-5-pyrimidinyl)-2-isopropyl-3(2H)-pyridazinone], the melting point lay within 127.5 to 129 °C.
The result for `Cn1nc(-c2c(-c3ccccc3)nc(N)nc2[S+](C)[O-])ccc1=O` (centres unmarked) [Example 143, 6-[2-amino-4-(methylsulfinyl)-6-phenyl-5-pyrimidinyl]-2-methyl-3(2H)-pyridazinone] reads more than 250 °C; that for `CC(C)CCOc1ccccc1-c1nc(N)ncc1-c1ccc(=O)n(C(C)C)n1` [Example 204, 6-{2-Amino-4-(2-(isopentyloxy)phenyl]-5-pyrimidinyl}-2-isopropyl-3(2H)-pyridazinone], 155 °C.
For the compound `CC(C)n1nc(-c2cnc(N)nc2-c2ccc(Cl)cc2)ccc1=O` [Example 45, 6-[2-Amino-4-(4-chlorophenyl)-5-pyrimidinyl]-2-isopropyl-3(2H)-pyridazinone], the melting point was determined as 195 °C.
`CCOc1nc(N)nc(-c2ccccc2)c1-c1ccc(=O)n(C(C)C)n1` [Example 81, 6-(2-amino-4-ethoxy-6-phenyl-5-pyrimidinyl)-2-isopropyl-3(2H)-pyridazinone] registered a melting point of 187.5 to 188.5 °C.
Then `CC(C)n1nc(-c2cnc(N(C)C)nc2-c2ccccc2)ccc1=O` [Example 11, 6-[2-(Dimethylamino)-4-phenyl-5-pyrimidinyl]-2-isopropyl-3(2H)-pyridazinone], with 155 to 156 °C.
The result for `CC(C)n1nc(-c2c(OCCN)nc(N)nc2-c2ccccc2)ccc1=O` [Example 104, 6-[2-amino-4-(2-aminoethoxy)-6-phenyl-5-pyrimidinyl]-2-isopropyl-3(2H)-pyridazinone] reads 213 to 216 °C.
Then `COc1ccc(-c2nc(N)ncc2-c2ccc(=O)n(C(C)C)n2)cc1OC` [Example 51, 6-[2-Amino-4-(3,4-dimethoxyphenyl)-5-pyrimidinyl]-2-isopropyl-3(2H)-pyridazinone], with 167 °C; and `Cn1nc(-c2cnc(N)nc2-c2cccc(O)c2)ccc1=O` (hydrate or solvate) [Example 225, 6-[2-Amino-4-(3-hydroxyphenyl)-5-pyrimidinyl]-2-methyl-3(2H)-pyridazinone], with 285 °C.
In the case of `CC(C)n1nc(-c2cnc(N(C(=O)c3ccc(Cl)cc3)C(=O)c3ccc(Cl)cc3)nc2-c2ccccc2)ccc1=O` [Example 180, 4-Chloro-N-(4-chlorobenzoyl)-N-[5-(1-isopropyl-6-oxo-1,6-dihydro-3-pyridazinyl)-4-phenyl-2-pyrimidinyl]benzamide], the melting point came out at 110 °C.
In turn, `CC(C)n1nc(-c2c(-c3ccccc3)nc(N)nc2N2CCN(C)CC2)ccc1=O` [Example 129, 6-[2-Amino-4-(4-methyl-1-piperazinyl)-6-phenyl-5-pyrimidinyl]-2-isopropyl-3(2H)-pyridazinone] had a melting point of 213 to 215 °C.
Compound `COc1ccc(-c2nc(N)ncc2-c2ccc(=O)n(C)n2)cc1OC` [Example 67, 6-[2-Amino-4-(3,4-dimethoxyphenyl)-5-pyrimidinyl]-2-methyl-3(2H)-pyridazinone] gave a melting point of 232 °C.
On to `Cc1ccc(C(=O)Nc2ncc(-c3ccc(=O)n(C(C)C)n3)c(-c3ccccc3)n2)cc1` [Example 173, N-[5-(1-isopropyl-6-oxo-1,6-dihydro-3-pyridazinyl)-4-phenyl-2-pyrimidinyl]-4-methylbenzamide], for which the melting point was determined as 116 °C.
The result for `Cc1cccc(-c2nc(N)ncc2-c2ccc(=O)n(C(C)C)n2)c1` [Example 57, 6-[2-Amino-4-(3-methylphenyl)-5-pyrimidinyl]-2-isopropyl-3(2H)-pyridazinone] reads 198 °C.
Then `CC(C)CCOc1cccc(-c2nc(N)ncc2-c2ccc(=O)n(C(C)C)n2)c1` [Example 205, 6-{2-Amino-4-[3-(isopentyloxy)phenyl]-5-pyrimidinyl}-2-isopropyl-3(2H)-pyridazinone], with 97 °C; and `CC(C)Oc1nc(N)nc(-c2ccccc2)c1-c1ccc(=O)n(C(C)C)n1` [Example 82, 6-(2-Amino-4-isopropoxy-6-phenyl-5-pyrimidinyl)-2-isopropyl-3(2H)-pyridazinone], with 176.5 to 177.5 °C.
Regarding `Nc1ncc(-c2ccc(=O)[nH]n2)c(-c2ccco2)n1` [Example 34, 6-[2-Amino-4-(2-furyl)-5-pyrimidinyl]-3(2H)-pyridazinone], the melting point lay in the range of 262 to 268 °C.
`CCCC(=O)Nc1ncc(-c2ccc(=O)n(C(C)C)n2)c(-c2ccccc2)n1` [Example 164, N-[5-(1-isopropyl-6-oxo-1,6-dihydro-3-pyridazinyl)-4-phenyl-2-pyrimidinyl]butanamide] gave a melting point of 148 to 150 °C.
As for `CC(C)n1nc(-c2c(NCc3ccco3)nc(N)nc2-c2ccccc2)ccc1=O` [Example 124, 6-{2-Amino-4-[(2-furylmethyl)amino]-6-phenyl-5-pyrimidinyl}-2-isopropyl-3(2H)-pyridazinone], the melting point lay in the range of 213 to 214 °C.
The result for `CC(C)n1nc(-c2c(NC(C)(C)C)nc(N)nc2-c2ccccc2)ccc1=O` [Example 113, 6-[2-Amino-4-(tert-butylamino)-6-phenyl-5-pyrimidinyl]-2-isopropyl-3(2H)-pyridazinone] reads 202 to 204 °C; that for `COc1nc(N)nc(-c2ccccc2)c1-c1ccc(=O)n(C)n1` [Example 144, 6-(2-Amino-4-methoxy-6-phenyl-5-pyrimidinyl)-2-methyl-3(2H)-pyridazinone], 218 to 220 °C; that for `COCCNc1nc(N)nc(-c2ccccc2)c1-c1ccc(=O)n(C(C)C)n1` [Example 115, 6-{2-amino-4-[(2-methoxyethyl)amino]-6-phenyl-5-pyrimidinyl}-2-isopropyl-3(2H)-pyridazinone], 168 to 170 °C.
